Results: publication PMC10787067, “EBF2 Links KMT2D‐Mediated H3K4me1 to Suppress Pancreatic Cancer Progression via Upregulating KLLN” (Advanced Science, 2023)

Assays:
[1] = system: SW1990 cells; test: Colony-formation and CCK-8 proliferation, SW1990; assay type: cell-based, Human; conditions: vs Vehicle, p < 0.01, Figure 5F,G
Method: Cell proliferation was determined by Cell Counting Kit‐8 (CCK‐8, Yeasen) and EdU Cell Proliferation Assay kit (Ribobio, Guangzhou, China). Colony formation was observed by staining with 0.1% crystal violet (Sangon Biotechnologies Inc., Shanghai, China). Cell migration and invasion were assessed using […] pore Transwell chambers with (for invasion assay) or without Matrigel (for migration assay). For migration assay, 5 × 10^4 SW1990 or 3 × 10^4 PANC‐1 cells were seeded into the upper chamber of the Transwell apparatus (Corning, USA) in serum‐free medium, and the medium supplemented with 10% FBS was added to the bottom chamber. For invasion assay, 10 × 10^4 SW1990 or 6 × 10^4 PANC‐1 cells were seeded into the upper Corning BioCoat Matrigel invasion chamber. After 24 h, the cells on the upper surface that had not passed through the polycarbonate filter were removed using a moistened cotton swab; the cells having migrated to the lower membrane surface were fixed in 100% methanol for 10 min, stained with 0.4% crystal violet for 15 min, and counted under a microscope (Nikon, Japan) at ×100 magnification. The cells were manually counted using Image J software. Three independent experiments were performed.

[2] = system: KLLN; test: Western blot and IHC of metastatic foci from treated mice, KLLN; assay type: in vivo, Human (xenograft in BALB/c nude mice); conditions: control vs GSK-LSD1-treated lung metastasis tissues, Figure 5L,M
[3] = system: KLLN; test: Western blot of KLLN in PANC-1 cells; assay type: cell-based, Human; conditions: 0, 1, 10 or 100 μM GSK-LSD1, Figure S4D
Method: SW1990 and PANC‐1 cells were isolated using lysate buffer containing protease inhibitors. Samples containing equal amounts of protein were separated by SDS‐PAGE. After electrophoresis, the proteins were transferred to a PVDF membrane (Millipore, Billerica, MA, USA) and blocked with 5% skim milk for 2 h at room temperature. An overnight incubation of membranes was made at 4 °C with primary antibodies against KMT2D (1:1000; Affinity, China), EBF2 (1:1000; Affinity), and KLLN (1:1000; Abcam, USA). After washing with 1× TBST for three times, a 2 h incubation of membranes was implemented with horseradish peroxidase (HRP)‐gemeled Affinipure Goat Anti‐Rabbit IgG (H + L) (1:10000; ProteinTech, China) or Peroxidase‐gemeled Affinipure Goat Anti‐Mouse IgG (H+L) (1:10000; ProteinTech) at room temperature. Proteins were visualized by chemiluminescence using an ECL kit (Thermo Fisher).

[4] = system: H3K4me1; test: IHC of H3K4me1 in PDX tumors; assay type: in vivo, Human (xenograft in immunodeficient nude mice); conditions: vs control, Figure 5O
Method: PDAC and tumor adjacent tissues were obtained from the Second Affiliated Hospital of Nanjing Medical University. Ninety pairs of ductal adenocarcinoma and adjacent normal pancreatic tissue sections (HPanA180Su03) were obtained from Shanghai Outdo Biotech (National Human Genetic Resources Sharing Service Platform with code No. XT20‐021, Shanghai, China), under the approval by the Ethics Committee of Shanghai Outdo Biotech. IHC staining was performed on paraffin‐embedded sections of biopsies from ductal adenocarcinoma patients and controls according to standard protocols (CST). […] All pancreatic cancer tissue sections were examined by two experienced pathologists, and the EBF2, KMT2D or KLLN stained in the tissue was scored independently using the H‐score system by two pathologists blinded to the clinical data. […] For the Pearson correlation scatter plot of molecules in ductal adenocarcinoma, the H score was calculated by adding the multiplication product of the different staining intensities in category A (0–3) with the percentage of positive cells, i.e., H score (0–300 scale) = 3 × (% at 3+) + 2 × (% at 2+) + 1 × (% at 1+). […] The between‐group difference in the overall survival was evaluated by the log‐rank test. The correlation between EBF2, KMT2D, and KLLN expression in ductal adenocarcinoma was assessed via Pearson correlation analysis. […]

[5] = system: KDM1A/LSD1; conditions: cited from earlier work
Source text: Next, we sought to elucidate the roles of KMT2D‐ and EBF2‐regulated H3K4me1 through profiling the gene transcription in PDAC cells with H3K4me1 activation by GSK‐LSD1 or EBF2 overexpression (EBF2‐OE). […] These differentially expressed genes (DEGs) were overlapped genes between EBF2‐OE and GSK‐LSD1‐treated SW1990 cells. A ...

[6] = system: SW1990‐luc xenografts; test: SW1990-luc xenografts in BALB/c nude mice; assay type: in vivo, Human (xenograft in BALB/c nude mice); conditions: n = 5, p < 0.01, two-way ANOVA, dose not given, Figure 5I-K
Method: BALB/c nude mice (4 weeks old) were purchased from the Animal Core Facility of Nanjing Medical University. Every 1 × 10^6 SW1990‐luc cells (SW1990 cells labeled with luciferase) were suspended in 100 µL of PBS and Matrigel (Corning) mixture, then subcutaneously injected into the right forelimb of nude mice. The length and width of tumor were measured every 2 or 3 days. Tumor volume was calculated using the formula: Volume = 0.5 × length × width^2. Luciferase signals in nude mice were measured at the first and fourth week after injection. The mice were sacrificed at 30 days for in vivo proliferation assay. Mice were anesthetized with isoflurane gas and sacrificed by cervical dislocation. Tumor tissues of these mice were collected for further analyses. Luciferase signals from D‐luciferin (Cat No. MB1834; MeilunBio, Dalian, China) were measured using IVIS Spectrum (PerkinElmer, USA) at indicated concentrations. The luciferase signal activity was quantitated using the software provided by the manufacturer.

Question: For `c1ccc([C@@H]2C[C@H]2NC2CCNCC2)cc1` [GSK‐LSD1], which proliferation [1] is on record?
Answer: significantly inhibited

Question: And the “KLLN in metastatic foci” value [2]?
Answer: upregulation

Question: What about the “KLLN level, concentration dependence” value [3] of the same compound?
Answer: increased the levels of H3K4me1 and KLLN in a concentration‐dependent manner

Question: And the “H3K4me1 expression in PDX tumors” value [4]?
Answer: significantly upregulated

Question: And the “H3K4me1 level via blocking of KDM1A/LSD1” value [5]?
Answer: can increase H3K4me1 level

Question: What about the “inhibition of KDM1A/LSD1, in words” value [5] of the same compound?
Answer: selective inhibitor of KDM1A/LSD1

Question: What about the “xenograft size compared to control mice” value [6] of the same compound?
Answer: significantly smaller sizes of SW1990‐luc xenografts
